Test results taken from paper PMC9675574 (JCI Insight, 2022).

Legend:
Assay in all cases: Competitive inhibition kinetics of trypsin, GPR-pNA substrate
Type in all cases: biochemical
[1] = target: T1, mouse trypsin isoform T20 (anionic trypsin) (Mus musculus, UniProt P07146); settings: for kcat / Km: GPR-pNA, 24°C; for Ki: mean ± SD, n = 3
T1 construct: made in house; host or cells: Escherichia coli BL21(DE3)
T1 sequence (P07146 24-246): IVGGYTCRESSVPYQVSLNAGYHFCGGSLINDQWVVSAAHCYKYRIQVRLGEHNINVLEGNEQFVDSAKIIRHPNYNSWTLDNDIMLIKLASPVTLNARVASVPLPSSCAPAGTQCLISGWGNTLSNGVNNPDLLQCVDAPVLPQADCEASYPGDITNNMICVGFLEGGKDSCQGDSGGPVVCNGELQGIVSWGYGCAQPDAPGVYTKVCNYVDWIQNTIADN
Protocol: (§1) Recombinant human and mouse trypsinogens were expressed in Escherichia coli BL21(DE3) (Invitrogen), refolded in vitro, and purified by ecotin affinity chromatography (Pharmacia FPLC), according to published protocols ([60], [63], [64]). Sulfated human trypsinogens were purified from archived samples of human pancreatic juice, as described previously, with minor modifications ([65], [66]). Briefly, 50 mg freeze-dried pancreatic juice was dissolved in 2 mL 10 mM HCl, clarified by centrifugation (21,000g, 5 minutes, 4°C), and loaded onto a MonoQ 5/50 GL column equilibrated with 20 mM Tris-HCl (pH 8.0). Proteins were eluted with a 0–0.5 M NaCl gradient at 1 mL/min flow rate for 30 minutes. The fractions containing the cationic and anionic trypsinogens were further purified with ecotin affinity chromatography. The concentration of trypsinogen preparations was estimated from their UV absorbance at 280 nm using the extinction coefficients reported previously for mouse trypsinogens ([64]) and 37,525, 38,890, and 41,535/M/cm for human cationic trypsinogen (PRSS1), anionic trypsinogen (PRSS2), and mesotrypsinogen (PRSS3), respectively. To activate trypsinogen to trypsin, approximately 1 μM solution was incubated at 37°C with 28.2 ng/mL human enterokinase (final concentration) in 0.1 M Tris-HCl (pH 8.0), 10 mM CaCl2, and 0.05% Tween 20 for 1 hour. The activation reaction was followed by measuring trypsin activity: 2 μL trypsin was diluted in 48 μL assay buffer [0.1 M Tris-HCl (pH 8.0), 1 mM CaCl2, and 0.05% Tween 20], and 150 μL of 200 μM GPR-pNA trypsin substrate (in assay buffer) was added. Substrate cleavage resulting in the release of the yellow p-nitroaniline was monitored for 1 minute in a Spectramax Plus 384 microplate reader at 405 nm.
(§2) Michaelis-Menten kinetic parameters of trypsin isoforms were determined with the chromogenic substrate GPR-pNA at 24°C. The trypsin concentration was 1 nM and the substrate concentration was varied typically between 1.56 and 200 μM in a final volume of 200 μL assay buffer. The substrate concentration range was 3.1–400 μM for mouse trypsin isoform T7 and 0.4–50 μM for mouse trypsin isoform T20. Km and kcat values were calculated from hyperbolic fits to plots of reaction velocity versus substrate concentration.
(§3) Michaelis-Menten kinetic parameters were then measured after adding 100 μL trypsin substrate, as described above. […] To determine the Ki, the Km values were plotted as a function of the inhibitor concentration, and the Ki was calculated by dividing the y axis intercept with the slope of the linear fit. This value corresponds to the negative of the x axis intercept. Alternatively, the substrate saturation curves obtained in the absence and presence of the increasing inhibitor concentrations were globally fitted to the competitive inhibition equation y = vmax × (x/[KmObs+ x]), where y is the reaction velocity, vmax is the maximal velocity, x is the substrate concentration, and KmObs = Km × (1 + [I]/Ki), where [I] is the inhibitor concentration. Experiments were performed 3 times and each experiment was analyzed separately. […] Kinetic analysis was performed with the Prism 8 program (GraphPad).

[2] = target: T2, sulfated human trypsin PRSS1-SO4 purified from pancreatic juice (Homo sapiens, UniProt P07477); settings: for kcat / Km: GPR-pNA, 24°C; for Ki: mean ± SD, n = 3
T2 construct: from tissue; host or cells: human pancreatic juice
Protocol: as §1, §2, §3

[3] = target: T3, sulfated human trypsin PRSS2-SO4 purified from pancreatic juice (Homo sapiens, UniProt P07478); settings: for kcat / Km: GPR-pNA, 24°C; for Ki: mean ± SD, n = 3
T3 construct: from tissue; host or cells: human pancreatic juice
Protocol: as §1, §2, §3

bovine trypsin = target: T4, bovine trypsin (Bos taurus, UniProt P00760); settings: 24°C
T4 construct: purchased Worthington Biochemical Corporation LS003707
T4 sequence (P00760 24-246): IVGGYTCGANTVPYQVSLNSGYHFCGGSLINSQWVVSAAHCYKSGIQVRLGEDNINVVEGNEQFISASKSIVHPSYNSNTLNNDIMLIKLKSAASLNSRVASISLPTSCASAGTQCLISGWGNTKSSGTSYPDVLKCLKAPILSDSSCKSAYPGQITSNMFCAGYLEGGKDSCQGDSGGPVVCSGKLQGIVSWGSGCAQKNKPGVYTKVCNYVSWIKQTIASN
Protocol: Bovine trypsin (catalog number LS003707) was purchased from Worthington Biochemical Corporation and was active-site titrated with p-nitrophenyl p’-guanidino-benzoate (catalog number N-8010, MilliporeSigma) ([59]). Ecotin was produced and purified as reported previously ([60]). The concentration of ecotin was determined by titration against active-site titrated bovine trypsin. Recombinant human pro-enterokinase (catalog number 1585-SE-010) was purchased from R&D Systems and was activated with human cationic trypsin. The trypsin substrate GPR-pNA (catalog number 4000768.0100) was purchased from Bachem Americas. […] Michaelis-Menten kinetic parameters of trypsin isoforms were determined with the chromogenic substrate GPR-pNA at 24°C. […] Km and kcat values were calculated from hyperbolic fits to plots of reaction velocity versus substrate concentration. […] To determine the Ki, the Km values were plotted as a function of the inhibitor concentration, and the Ki was calculated by dividing the y axis intercept with the slope of the linear fit. This value corresponds to the negative of the x axis intercept. […] Experiments were performed 3 times and each experiment was analyzed separately. […] Kinetic analysis was performed with the Prism 8 program (GraphPad).

T3 sequence (P07478 24-247): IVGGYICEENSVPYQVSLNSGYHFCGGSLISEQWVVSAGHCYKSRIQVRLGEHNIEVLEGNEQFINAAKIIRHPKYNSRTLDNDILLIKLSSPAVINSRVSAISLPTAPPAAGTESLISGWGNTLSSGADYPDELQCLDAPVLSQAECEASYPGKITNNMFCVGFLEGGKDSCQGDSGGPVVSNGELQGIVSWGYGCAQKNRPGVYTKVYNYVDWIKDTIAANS

N=C(N)c1ccccc1 [benzamidine]
kcat ([1]; 12.5 μM benzamidine): 65 ± 1 per second
kcat ([1]; 25 μM benzamidine): 62.1 ± 1.8 per second
kcat ([1]; 37.5 μM benzamidine): 64.7 ± 2.1 per second
kcat ([1]; 50 μM benzamidine): 65.6 ± 2.1 per second
Ki ([1]; Ki benzamidine, Global fit): 7.6 ± 0.5 µM
Ki ([1]; Ki benzamidine, Individual fit): 6.9 ± 1.1 µM
kcat ([2]; 12.5 μM benzamidine): 104.1 ± 2.8 per second
kcat ([2]; 25 μM benzamidine): 112.1 ± 4.9 per second
kcat ([2]; 37.5 μM benzamidine): 108.4 ± 5.3 per second
kcat ([2]; 50 μM benzamidine): 113.6 ± 7.2 per second
Ki ([2]; Ki benzamidine, Global fit): 10.5 ± 0.9 µM
Ki ([2]; Ki benzamidine, Individual fit): 8.3 ± 2.2 µM
kcat ([3]; 12.5 μM benzamidine): 64.8 ± 1.6 per second
kcat ([3]; 25 μM benzamidine): 64.3 ± 1.4 per second
kcat ([3]; 37.5 μM benzamidine): 64.5 ± 1.5 per second
kcat ([3]; 50 μM benzamidine): 69.3 ± 0.3 per second
Ki ([3]; Ki benzamidine, Global fit): 4200 ± 700 nM
Ki ([3]; Ki benzamidine, Individual fit): 3300 ± 500 nM
kcat (bovine trypsin; 25 μM benzamidine): 109 ± 9.5 per second
kcat (bovine trypsin; 50 μM benzamidine): 115.8 ± .9 per second

[H]/N=C(/N)c1ccc(NCc2nc3cc(C(=O)N(CCC(=O)O)c4ccccn4)ccc3n2C)cc1 [dabigatran]
Km ([1]; 50 nM dabigatran): 9.5 ± 1.3 µM
kcat ([1]; 50 nM dabigatran): 52 ± 4 per second
Km ([1]; 100 nM dabigatran): 19.5 ± 0.5 µM
kcat ([1]; 100 nM dabigatran): 51.1 ± 1.7 per second
Km ([1]; 150 nM dabigatran): 22.5 ± 2.5 µM
kcat ([1]; 150 nM dabigatran): 48.7 ± 3.3 per second
Km ([1]; 200 nM dabigatran): 28.5 ± 2.2 µM
kcat ([1]; 200 nM dabigatran): 50 ± 6.3 per second
Ki ([1]; Ki dabigatran, Global fit): 0.0226 ± 0.0007 µM
Km ([2]; 25 nM dabigatran): 21.4 ± 1.5 µM
kcat ([2]; 25 nM dabigatran): 101 ± 2.3 per second
Km ([2]; 50 nM dabigatran): 32.7 ± 3 µM
kcat ([2]; 50 nM dabigatran): 105.5 ± 5.1 per second
Km ([2]; 75 nM dabigatran): 42.8 ± 7.8 µM
kcat ([2]; 75 nM dabigatran): 103.2 ± 4.2 per second
Km ([2]; 100 nM dabigatran): 57 ± 2.1 µM
kcat ([2]; 100 nM dabigatran): 104.7 ± 2.1 per second
Ki ([2]; Ki dabigatran, Global fit): 0.0233 ± 0.002 µM
Km ([3]; 25 nM dabigatran): 13 ± 0.5 µM
kcat ([3]; 25 nM dabigatran): 63.4 ± 0.4 per second
Km ([3]; 50 nM dabigatran): 23.5 ± 1.3 µM
kcat ([3]; 50 nM dabigatran): 66.8 ± 1.6 per second
Km ([3]; 75 nM dabigatran): 31.5 ± 0.4 µM
kcat ([3]; 75 nM dabigatran): 63.8 ± 0.9 per second
Km ([3]; 100 nM dabigatran): 42.4 ± 3.5 µM
kcat ([3]; 100 nM dabigatran): 67.2 ± 1.9 per second
Ki ([3]; Ki dabigatran, Global fit): 10.3 ± 0.5 nM
Ki ([3]; Ki dabigatran, Individual fit): 10 ± 3.2 nM
Km (bovine trypsin; 50 nM dabigatran): 49.5 ± 3.3 µM
kcat (bovine trypsin; 50 nM dabigatran): 127.7 ± 0.8 per second
Km (bovine trypsin; 100 nM dabigatran): 71.6 ± 3.5 µM
kcat (bovine trypsin; 100 nM dabigatran): 126.6 ± 3.5 per second
Km (bovine trypsin; 150 nM dabigatran): 91.9 ± 4.9 µM
kcat (bovine trypsin; 150 nM dabigatran): 123.8 ± 2.9 per second
Km (bovine trypsin; 200 nM dabigatran): 126 ± 7 µM
kcat (bovine trypsin; 200 nM dabigatran): 130.1 ± 1.4 per second
